In publication PMC9532703, “A novel small molecule RK-019 inhibits FGFR2-amplification gastric cancer cell proliferation and induces apoptosis in vitro and in vivo” (Frontiers in Pharmacology, 2022):

Columns and labels:
Assay in all cases: Kinase selectivity panel
Format in all cases: biochemical
Details in all cases: read-out: Inhibition(%) @ 1 µM RK-019
A-Raf(h) = molecular target: T1, A-Raf(h) (Homo sapiens, UniProt P10398)
T1 construct: purchased Eurofins Discovery Services (KinaseProfiler)
In short: (§1)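 Selectivity profiling used one concentration (1 µM) in an ATP-site competition binding assay over 422 recombinant human kinases; data given as inhibition ratio.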

Abl(Y253F)(h) = molecular target: T2, Abl(Y253F)(h) (Homo sapiens, UniProt P00519, Y253F)
T2 construct: purchased Eurofins Discovery Services (KinaseProfiler)
In short: as §1

CDK2/cyclinE(h) = molecular target: T3, CDK2/cyclinE(h) (Homo sapiens, UniProt P24941)
T3 construct: purchased Eurofins Discovery Services (KinaseProfiler)
In short: as §1

CHK2(R145W)(h) = molecular target: T4, CHK2(R145W)(h) (Homo sapiens, UniProt O96017, R145W)
T4 construct: purchased Eurofins Discovery Services (KinaseProfiler)
In short: as §1

CaMKIγ(h) = molecular target: T5, CaMKIγ(h) (Homo sapiens, UniProt Q96NX5)
T5 construct: purchased Eurofins Discovery Services (KinaseProfiler)
In short: as §1

ChaK1(h) = molecular target: T6, ChaK1(h) (Homo sapiens, UniProt Q96QT4)
T6 construct: purchased Eurofins Discovery Services (KinaseProfiler)
In short: as §1

DDR2(h) = molecular target: T7, DDR2(h) (Homo sapiens, UniProt Q16832)
T7 construct: purchased Eurofins Discovery Services (KinaseProfiler)
In short: as §1

DRAK1(h) = molecular target: T8, DRAK1(h) (Homo sapiens, UniProt Q9UEE5)
T8 construct: purchased Eurofins Discovery Services (KinaseProfiler)
In short: as §1

DYRK1B(h) = molecular target: T9, DYRK1B(h) (Homo sapiens, UniProt Q9Y463)
T9 construct: purchased Eurofins Discovery Services (KinaseProfiler)
In short: as §1

EphA3(h) = molecular target: T10, EphA3(h) (Homo sapiens, UniProt P29320)
T10 construct: purchased Eurofins Discovery Services (KinaseProfiler)
In short: as §1

Fes(h) = molecular target: T11, Fes(h) (Homo sapiens, UniProt P07332)
T11 construct: purchased Eurofins Discovery Services (KinaseProfiler)
In short: as §1

GCN2(h) = molecular target: T12, GCN2(h) (Homo sapiens, UniProt Q9P2K8)
T12 construct: purchased Eurofins Discovery Services (KinaseProfiler)
In short: as §1

GRK6(h) = molecular target: T13, GRK6(h) (Homo sapiens, UniProt P43250)
T13 construct: purchased Eurofins Discovery Services (KinaseProfiler)
In short: as §1

IRE1(h) = molecular target: T14, IRE1(h) (Homo sapiens, UniProt O75460)
T14 construct: purchased Eurofins Discovery Services (KinaseProfiler)
In short: as §1

JAK2(h) = molecular target: T15, JAK2(h) (Homo sapiens, UniProt O60674)
T15 construct: purchased Eurofins Discovery Services (KinaseProfiler)
In short: as §1

MAP4K5(h) = molecular target: T16, MAP4K5(h) (Homo sapiens, UniProt Q9Y4K4)
T16 construct: purchased Eurofins Discovery Services (KinaseProfiler)
In short: as §1

Met(Y1248C)(h) = molecular target: T17, Met(Y1248C)(h) (Homo sapiens, UniProt P08581, Y1230C)
T17 construct: purchased Eurofins Discovery Services (KinaseProfiler)
In short: as §1

NEK1(h) = molecular target: T18, NEK1(h) (Homo sapiens, UniProt Q96PY6)
T18 construct: purchased Eurofins Discovery Services (KinaseProfiler)
In short: as §1

PDGFRβ(h) = molecular target: T19, PDGFRβ(h) (Homo sapiens, UniProt P09619)
T19 construct: purchased Eurofins Discovery Services (KinaseProfiler)
In short: as §1

[1] = molecular target: T20, PI3 Kinase (p110b/p85a)(h) (Homo sapiens, UniProt P42338)
T20 construct: purchased Eurofins Discovery Services (KinaseProfiler)
In short: as §1

PI3KC2a(h) = molecular target: T21, PI3KC2a(h) (Homo sapiens, UniProt O00443)
T21 construct: purchased Eurofins Discovery Services (KinaseProfiler)
In short: as §1

PIP4K2a(h) = molecular target: T22, PIP4K2a(h) (Homo sapiens, UniProt P48426)
T22 construct: purchased Eurofins Discovery Services (KinaseProfiler)
In short: as §1

PKAcβ(h) = molecular target: T23, PKAcβ(h) (Homo sapiens, UniProt P22694)
T23 construct: purchased Eurofins Discovery Services (KinaseProfiler)
In short: as §1

PKBα(h) = molecular target: T24, PKBα(h) (Homo sapiens, UniProt P31749)
T24 construct: purchased Eurofins Discovery Services (KinaseProfiler)
In short: as §1

PKCθ(h) = molecular target: T25, PKCθ(h) (Homo sapiens, UniProt Q04759)
T25 construct: purchased Eurofins Discovery Services (KinaseProfiler)
In short: as §1

PRK2(h) = molecular target: T26, PRK2(h) (Homo sapiens, UniProt Q16513)
T26 construct: purchased Eurofins Discovery Services (KinaseProfiler)
In short: as §1

Pim-3(h) = molecular target: T27, Pim-3(h) (Homo sapiens, UniProt Q86V86)
T27 construct: purchased Eurofins Discovery Services (KinaseProfiler)
In short: as §1

PrKX(h) = molecular target: T28, PrKX(h) (Homo sapiens, UniProt P51817)
T28 construct: purchased Eurofins Discovery Services (KinaseProfiler)
In short: as §1

STK32C(h) = molecular target: T29, STK32C(h) (Homo sapiens, UniProt Q86UX6)
T29 construct: purchased Eurofins Discovery Services (KinaseProfiler)
In short: as §1

Snk(h) = molecular target: T30, Snk(h) (Homo sapiens, UniProt Q9NYY3)
T30 construct: purchased Eurofins Discovery Services (KinaseProfiler)
In short: as §1

TAF1L(h) = molecular target: T31, TAF1L(h) (Homo sapiens, UniProt Q8IZX4)
T31 construct: purchased Eurofins Discovery Services (KinaseProfiler)
In short: as §1

TSSK3(h) = molecular target: T32, TSSK3(h) (Homo sapiens, UniProt Q96PN8)
T32 construct: purchased Eurofins Discovery Services (KinaseProfiler)
In short: as §1

TrkC(h) = molecular target: T33, TrkC(h) (Homo sapiens, UniProt Q16288)
T33 construct: purchased Eurofins Discovery Services (KinaseProfiler)
In short: as §1

WNK3(h) = molecular target: T34, WNK3(h) (Homo sapiens, UniProt Q9BYP7)
T34 construct: purchased Eurofins Discovery Services (KinaseProfiler)
In short: as §1

ZIPK(h) = molecular target: T35, ZIPK(h) (Homo sapiens, UniProt O43293)
T35 construct: purchased Eurofins Discovery Services (KinaseProfiler)
In short: as §1

c-RAF(h) = molecular target: T36, c-RAF(h) (Homo sapiens, UniProt P04049)
T36 construct: purchased Eurofins Discovery Services (KinaseProfiler)
In short: as §1

cKit(V560G)(h) = molecular target: T37, cKit(V560G)(h) (Homo sapiens, UniProt P10721, V560G)
T37 construct: purchased Eurofins Discovery Services (KinaseProfiler)
In short: as §1

T19 sequence (P09619 33-1106): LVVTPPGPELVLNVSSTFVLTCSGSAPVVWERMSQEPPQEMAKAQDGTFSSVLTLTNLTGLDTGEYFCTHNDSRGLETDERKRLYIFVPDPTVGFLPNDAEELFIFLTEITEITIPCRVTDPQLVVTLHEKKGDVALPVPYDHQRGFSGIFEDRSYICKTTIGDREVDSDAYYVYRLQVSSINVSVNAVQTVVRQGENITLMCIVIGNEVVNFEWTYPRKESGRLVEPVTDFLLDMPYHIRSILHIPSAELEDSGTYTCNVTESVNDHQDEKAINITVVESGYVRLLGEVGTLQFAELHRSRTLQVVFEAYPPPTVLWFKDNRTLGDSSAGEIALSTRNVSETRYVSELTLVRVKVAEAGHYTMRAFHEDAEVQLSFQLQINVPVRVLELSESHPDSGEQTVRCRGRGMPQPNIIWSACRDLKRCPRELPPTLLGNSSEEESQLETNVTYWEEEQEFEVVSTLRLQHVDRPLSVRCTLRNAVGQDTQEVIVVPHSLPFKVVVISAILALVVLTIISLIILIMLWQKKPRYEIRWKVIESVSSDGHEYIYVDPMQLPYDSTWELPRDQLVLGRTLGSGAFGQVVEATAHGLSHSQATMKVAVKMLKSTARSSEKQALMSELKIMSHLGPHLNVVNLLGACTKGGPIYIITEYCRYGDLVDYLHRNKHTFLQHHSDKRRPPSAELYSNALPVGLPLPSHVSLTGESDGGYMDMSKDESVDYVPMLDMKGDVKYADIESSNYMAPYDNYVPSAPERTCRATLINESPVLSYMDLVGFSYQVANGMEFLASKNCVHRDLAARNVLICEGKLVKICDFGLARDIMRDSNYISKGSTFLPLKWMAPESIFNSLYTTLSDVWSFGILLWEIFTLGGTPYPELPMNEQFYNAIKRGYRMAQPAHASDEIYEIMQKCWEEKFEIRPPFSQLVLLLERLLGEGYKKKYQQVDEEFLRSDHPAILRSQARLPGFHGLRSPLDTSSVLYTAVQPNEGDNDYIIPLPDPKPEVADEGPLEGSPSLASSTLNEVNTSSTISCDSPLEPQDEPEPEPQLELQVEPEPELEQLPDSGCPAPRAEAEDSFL
T37 sequence (P10721 26-976 V560G): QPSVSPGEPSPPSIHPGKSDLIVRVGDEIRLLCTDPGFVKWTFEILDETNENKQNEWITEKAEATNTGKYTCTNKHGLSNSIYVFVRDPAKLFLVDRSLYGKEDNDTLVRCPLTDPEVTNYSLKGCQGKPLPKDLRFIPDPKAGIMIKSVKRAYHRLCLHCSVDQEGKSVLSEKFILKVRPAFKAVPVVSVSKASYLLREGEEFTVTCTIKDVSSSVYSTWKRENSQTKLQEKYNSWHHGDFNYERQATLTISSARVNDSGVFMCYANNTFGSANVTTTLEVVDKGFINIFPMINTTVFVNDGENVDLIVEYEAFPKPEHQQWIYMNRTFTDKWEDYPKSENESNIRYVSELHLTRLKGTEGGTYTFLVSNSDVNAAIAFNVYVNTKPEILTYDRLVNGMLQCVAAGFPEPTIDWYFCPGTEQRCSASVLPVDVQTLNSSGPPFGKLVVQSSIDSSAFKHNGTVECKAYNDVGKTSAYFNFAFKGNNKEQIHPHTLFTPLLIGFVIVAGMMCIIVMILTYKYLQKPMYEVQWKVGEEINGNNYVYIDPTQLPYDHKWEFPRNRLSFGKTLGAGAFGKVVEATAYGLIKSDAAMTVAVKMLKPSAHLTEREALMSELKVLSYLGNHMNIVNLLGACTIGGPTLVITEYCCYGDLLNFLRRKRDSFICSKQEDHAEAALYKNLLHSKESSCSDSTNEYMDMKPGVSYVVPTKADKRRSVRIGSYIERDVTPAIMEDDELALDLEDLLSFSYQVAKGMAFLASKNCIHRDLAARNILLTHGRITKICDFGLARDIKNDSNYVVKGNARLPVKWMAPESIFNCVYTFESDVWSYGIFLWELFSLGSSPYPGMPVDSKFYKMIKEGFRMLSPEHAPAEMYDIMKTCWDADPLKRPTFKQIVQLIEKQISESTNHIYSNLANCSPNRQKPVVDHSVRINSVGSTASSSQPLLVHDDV
T25 sequence (Q04759 whole entry): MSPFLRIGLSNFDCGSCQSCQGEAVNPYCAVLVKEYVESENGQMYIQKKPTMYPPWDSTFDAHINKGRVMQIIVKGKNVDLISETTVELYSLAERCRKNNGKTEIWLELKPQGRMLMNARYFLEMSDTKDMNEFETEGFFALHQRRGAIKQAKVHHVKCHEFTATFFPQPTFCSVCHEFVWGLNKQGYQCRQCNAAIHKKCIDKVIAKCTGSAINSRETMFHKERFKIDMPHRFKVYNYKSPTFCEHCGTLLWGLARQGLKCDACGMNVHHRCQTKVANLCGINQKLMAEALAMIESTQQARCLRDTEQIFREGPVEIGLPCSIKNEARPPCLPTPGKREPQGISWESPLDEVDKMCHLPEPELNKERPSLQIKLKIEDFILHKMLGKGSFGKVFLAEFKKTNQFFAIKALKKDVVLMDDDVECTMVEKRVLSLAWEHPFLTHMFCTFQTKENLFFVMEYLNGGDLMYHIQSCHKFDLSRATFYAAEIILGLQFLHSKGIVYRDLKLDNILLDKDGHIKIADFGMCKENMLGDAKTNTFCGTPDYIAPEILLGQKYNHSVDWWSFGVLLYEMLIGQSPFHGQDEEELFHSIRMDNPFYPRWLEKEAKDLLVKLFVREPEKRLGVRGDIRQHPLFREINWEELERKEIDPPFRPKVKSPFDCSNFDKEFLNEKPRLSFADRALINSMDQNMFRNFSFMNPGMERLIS
T4 sequence (O96017 whole entry R145W): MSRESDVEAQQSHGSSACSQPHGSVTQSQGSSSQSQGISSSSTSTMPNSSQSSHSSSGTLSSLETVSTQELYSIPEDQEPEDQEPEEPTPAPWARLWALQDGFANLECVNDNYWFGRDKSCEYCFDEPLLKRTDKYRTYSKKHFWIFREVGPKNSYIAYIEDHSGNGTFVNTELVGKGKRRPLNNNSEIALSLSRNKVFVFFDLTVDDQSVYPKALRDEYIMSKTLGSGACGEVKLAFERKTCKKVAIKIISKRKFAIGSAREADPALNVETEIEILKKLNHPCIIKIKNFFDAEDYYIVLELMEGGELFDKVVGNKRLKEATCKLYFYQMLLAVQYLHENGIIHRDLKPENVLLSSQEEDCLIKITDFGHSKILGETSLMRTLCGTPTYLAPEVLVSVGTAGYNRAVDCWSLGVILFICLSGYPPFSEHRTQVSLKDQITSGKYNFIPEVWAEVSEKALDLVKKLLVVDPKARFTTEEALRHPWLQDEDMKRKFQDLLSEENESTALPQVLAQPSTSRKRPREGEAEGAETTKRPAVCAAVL
T34 sequence (Q9BYP7 whole entry): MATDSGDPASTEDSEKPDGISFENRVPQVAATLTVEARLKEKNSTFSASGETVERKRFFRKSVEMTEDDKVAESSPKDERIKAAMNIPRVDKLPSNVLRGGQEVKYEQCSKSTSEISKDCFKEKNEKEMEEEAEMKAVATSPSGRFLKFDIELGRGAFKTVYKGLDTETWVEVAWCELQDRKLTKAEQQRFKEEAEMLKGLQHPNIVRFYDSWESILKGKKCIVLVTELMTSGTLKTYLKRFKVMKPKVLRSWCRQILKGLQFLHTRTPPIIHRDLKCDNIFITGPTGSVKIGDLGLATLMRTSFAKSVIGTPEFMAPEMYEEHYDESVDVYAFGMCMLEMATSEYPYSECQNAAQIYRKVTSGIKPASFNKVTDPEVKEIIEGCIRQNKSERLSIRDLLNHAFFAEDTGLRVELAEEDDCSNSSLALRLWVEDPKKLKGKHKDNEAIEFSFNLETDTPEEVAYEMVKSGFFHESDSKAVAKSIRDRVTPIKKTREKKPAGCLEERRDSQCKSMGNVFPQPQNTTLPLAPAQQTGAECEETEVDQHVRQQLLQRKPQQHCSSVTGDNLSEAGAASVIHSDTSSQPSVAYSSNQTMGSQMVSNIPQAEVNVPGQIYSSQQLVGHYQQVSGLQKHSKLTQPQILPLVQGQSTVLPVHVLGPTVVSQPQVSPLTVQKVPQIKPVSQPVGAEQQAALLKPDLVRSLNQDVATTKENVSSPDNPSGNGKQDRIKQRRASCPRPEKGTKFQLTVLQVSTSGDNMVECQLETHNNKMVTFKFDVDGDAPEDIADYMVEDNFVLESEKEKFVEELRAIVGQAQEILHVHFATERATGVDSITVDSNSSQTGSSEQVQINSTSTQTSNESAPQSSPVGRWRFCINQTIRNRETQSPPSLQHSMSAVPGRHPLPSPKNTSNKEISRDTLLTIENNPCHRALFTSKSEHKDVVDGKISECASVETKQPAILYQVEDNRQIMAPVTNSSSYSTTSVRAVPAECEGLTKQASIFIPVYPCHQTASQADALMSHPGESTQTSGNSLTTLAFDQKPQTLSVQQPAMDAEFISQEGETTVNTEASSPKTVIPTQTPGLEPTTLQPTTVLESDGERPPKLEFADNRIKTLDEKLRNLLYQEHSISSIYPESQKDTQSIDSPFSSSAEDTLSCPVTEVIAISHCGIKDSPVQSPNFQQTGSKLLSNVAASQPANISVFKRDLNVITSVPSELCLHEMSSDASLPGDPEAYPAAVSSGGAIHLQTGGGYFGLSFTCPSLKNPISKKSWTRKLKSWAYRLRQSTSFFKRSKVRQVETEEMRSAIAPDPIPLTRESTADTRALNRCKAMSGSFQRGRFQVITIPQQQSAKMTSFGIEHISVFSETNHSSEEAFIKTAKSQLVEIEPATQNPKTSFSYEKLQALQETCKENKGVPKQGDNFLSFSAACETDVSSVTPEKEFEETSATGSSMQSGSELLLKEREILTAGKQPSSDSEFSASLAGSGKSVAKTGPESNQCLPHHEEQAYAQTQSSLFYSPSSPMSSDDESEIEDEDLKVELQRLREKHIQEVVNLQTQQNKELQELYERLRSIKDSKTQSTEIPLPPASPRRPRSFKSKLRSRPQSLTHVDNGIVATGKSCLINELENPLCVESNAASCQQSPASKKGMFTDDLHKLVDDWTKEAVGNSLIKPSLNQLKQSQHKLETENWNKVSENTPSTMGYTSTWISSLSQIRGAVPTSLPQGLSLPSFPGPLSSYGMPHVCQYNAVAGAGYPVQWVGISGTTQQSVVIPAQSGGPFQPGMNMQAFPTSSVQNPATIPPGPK

Work on COc1cc(OC)cc(N(CCN[C@H](C)CO)c2ccc3ncc(-c4cnn(C)c4)c(=O)n3c2)c1 [RK-019, (R)-7-((3,5-dimethoxyphenyl) (2-((1-hydroxypropan-2-yl)amino)ethyl)amino)-3-(1-methyl-1H-pyrazol-4-yl)-4H-pyrido [1,2-a]pyrimidin-4-one] yielded an activity at 1 µM (A-Raf(h)) of 133%, an activity at 1 µM (Abl(Y253F)(h)) of 54% and an activity at 1 µM (CDK2/cyclinE(h)) of 123%. It also gave an activity at 1 µM (CHK2(R145W)(h)) of 100%, an activity at 1 µM (CaMKIγ(h)) of 93% and an activity at 1 µM (ChaK1(h)) of 100%. It also gave an activity at 1 µM (DDR2(h)) of 109%, an activity at 1 µM (DRAK1(h)) of 95% and an activity at 1 µM (DYRK1B(h)) of 97%. It also gave an activity at 1 µM (EphA3(h)) of 60%, an activity at 1 µM (Fes(h)) of 106% and an activity at 1 µM (GCN2(h)) of 134%. It also gave an activity at 1 µM (GRK6(h)) of 114%, an activity at 1 µM (IRE1(h)) of 93% and an activity at 1 µM (JAK2(h)) of 106%. It also gave an activity at 1 µM (MAP4K5(h)) of 103%, an activity at 1 µM (Met(Y1248C)(h)) of 85% and an activity at 1 µM (NEK1(h)) of 52%. For the same compound, the activity at 1 µM (PDGFRβ(h)) was 54%, the activity at 1 µM [1] was 100% and the activity at 1 µM (PI3KC2a(h)) was 104%. It also gave an activity at 1 µM (PIP4K2a(h)) of 102%, an activity at 1 µM (PKAcβ(h)) of 98% and an activity at 1 µM (PKBα(h)) of 102%. For the same compound, the activity at 1 µM (PKCθ(h)) was 119%, the activity at 1 µM (PRK2(h)) was 106% and the activity at 1 µM (Pim-3(h)) was 114%. For the same compound, the activity at 1 µM (PrKX(h)) was 98%, the activity at 1 µM (STK32C(h)) was 72% and the activity at 1 µM (Snk(h)) was 109%. The activity at 1 µM (TAF1L(h)) was 100%, the activity at 1 µM (TSSK3(h)) was 102% and the activity at 1 µM (TrkC(h)) was 86%. The activity at 1 µM (WNK3(h)) was 110%, the activity at 1 µM (ZIPK(h)) was 96% and the activity at 1 µM (c-RAF(h)) was 94%. For the same compound, the activity at 1 µM (cKit(V560G)(h)) was 14%.
